Measured values: patent publication US20150057316A1, “NOVEL SULFONATE-BASED TRIMEBUTINE SALTS” (GICARE PHARMA INC., priority 2012, published 2015)

Legend:
[1] = tested on: Beagle dogs; experiment: i.v./p.o. cross over study in dogs, toxicological assessment; type: in vivo; settings: 2 mg/kg i.v. or 10 mg/kg p.o.
Procedure: (§1) Trimebutine 3-thiocarbamoyl-benzenesulfonate was administered as a cross over design once, each dosing separated by at least a 7-day washout period. During this study, assessments included mortality checks, clinical observations, and body weights. Feces and urine samples were collected up to 48 hr post-administration. Blood samples were also collected for pharmacokinetic evaluations on Days 1 and 8 at 10 time points. Pharmacokinetic data are presented in the two following Figures.

[2] = tested on: male Sprague-Dawley rats; experiment: preliminary toxicological evaluation following p.o. administration in rats; type: in vivo
Procedure: A preliminary toxicological evaluation of the compound was done in 250-300 g male Sprague-Dawley rats. Animals were randomized into one of three dosing group, i.e. 250, 500 or 1,000 mg/kg administered by oral gavage. Following administration of the test article, animals were observed hourly for the first 8 hr post-dosing for clinical signs and twice daily thereafter until termination on Day 7. Three animals per group were sacrificed by exsanguination under general anesthesia at 24-hr post dosing or on Day 7 and a gross necropsy was performed in all animals. Additionally, all three rats having received the 500 mg/kg dose and scheduled for sacrifice on Day 7 were placed in individual metabolic cages immediately following test article administration, in order to collect feces and urine during 48 hr. Blood samples were collected terminally from each rat for hematology and serum chemistry evaluation.

[3] = recovery of counter-ion and metabolites in urine and feces of dogs; type: in vivo; settings: for mean total recovery of the unchanged counter-ion: urine and feces up to 48 hr
Procedure: as §1
After proper preparation of the urine and feces samples, 3-thiocarbamoyl-benzenesulfonate counter-ion and its two potential metabolites (3-cyanobenzenesulfonate and 3-sulfobenzoate) were assessed using a LC/MS/MS method, with analysis by MRM, ESI-. Calibration curves were prepared for each analyte in blank feces homogenate, following the same procedure.

[4] = accelerated stability protocol; type: physicochemical; settings: Polymorph B, 40±2° C., 75±5% RH, six months
Procedure: The long-term stability of Example 20 was assessed using an accelerated stability protocol. For this purpose, samples of Example 20—Polymorph B was placed in borosilicate vials polyethylene plastic bags, sealed in an aluminum bag, and placed in a fiber drum with desiccant. The samples where then subjected to 40±2° C. with 75±5% relative humidity (RH), and stability was monitored at time 0, 1, 2, 3 and 6 months using a standardized HPLC method.

[5] = tested on: colorectal distension induced pain; experiment: electromyographic colorectal distension (CRD) induced pain model; type: in vivo, mice; settings: for VMR response to colorectal distension compared to the control group: mice, 30 and 60 mg/kg oral
Text: The purpose was to evaluate the antinociceptive effects of Example 20 in an electromyographic colorectal distension (CRD) induced pain model. This model is recognized by experts in the field to be less subjective than the rat Abdominal Withdrawal Response (AWR) colorectal distension model, and has been used to assess the analgesic and sedative properties of several new compounds, including IBS drugs Zhuo, M; Gebhart, G. F. Facilitation and attenuation of a visceral nociceptive reflex from the rostroventral medulla in the rat. Gastroenterology, 2002, 122 1007-1019; Larsson, M. H.; Rapp, L.; Lindström, E. Effect of DSS-induced colitis on visceral sensitivity to colorectal distension in mice. Neurogastroenterology & Motility, 2006, 18, 144-152; Arvidsson, S.; Larsson, M.; Larsson, H.; Lindström, E.; Martinez, V. J. Pain, 2006, 7, 108-118; Jones, R. C. W.; Gebhart, G. F. Models of Visceral Pain: Colorectal Distension (CRD). Currrent Protocols in Pharmacology, 2004, 5.36, DOI: 10.1002/0471141755.ph0536s25.]
Three groups of 10 male mice (C57Bl6) were used: 2 groups received treatments with […] and one group received their vehicle […].
The groups were divided as follows: • i. 2 groups of 10 mice received an oral administration of Example 20 at two doses, 30 and 60 mg/kg. • ii. 1 group of 10 mice received an oral administration of the vehicle (PEG 200) use to administer Example 20.
All groups were implanted with electrodes in the abdominal external oblique musculature under anaesthesia. The surgery for electrode implantation was performed 5 days before the day of the experiment. The day of the experiment, colorectal distension (CRD) was performed in all animals, by inserting a balloon (10-mm long) into the colon, at 5 mm from the anus. The balloon was inflated with warm water, in a stepwise manner, from 0 to 60 mm Hg, with 15 mm Hg increments. […] At various times after these treatments: 2, 4 and 6-hours, the same series of stepwise CRD were performed and electromyographic responses (VMR in millivolts/sec) were recorded.

[6] = tested on: male Balb/C mice; experiment: preliminary toxicological evaluation following i.p. administration in mice; type: in vivo; settings: 50 mg/kg i.p.
Procedure: A preliminary toxicological evaluation of the compound was done in 6-8 week old male Balb/C mice. […] Following administration of the test article, animals were observed hr for the first 8 hr post-dosing for clinical signs and twice daily thereafter until termination on Day 7. Body weights were determined on Days 1, 2, 3 and 7. Three mice were sacrificed by exsanguination at 24 hr post dosing or on Day 7, and a gross necropsy was performed in all animals. Particular attention was paid to the abdominal, thoracic and cranial cavities for reporting of any unusual observations.

[7] = male rats, single oral dose 250, 500 or 1000 mg/kg

## CCC(COC(=O)c1cc(OC)c(OC)c(OC)c1)(c1ccccc1)N(C)C.NC(=S)c1cccc(S(=O)(=O)O)c1 (stereo not shown) [Example 20]
[1]
  bodyweight: no change in bodyweight
  death: no death reported
  toxicity: no indication of any toxicity
[2]; male rats, single oral dose
  hematology parameters: No significant changes
  serum biochemistry variations compared to control (e.g., amylase, creatinine): minor, transient and remained within the normal range for the species
[2]; [7]
  mortality or clinical signs: No mortality or clinical signs were observed
  tolerability: well tolerated
[2]; rats sacrificed on Day 7, 500 or 1000 mg/kg p.o.
  necropsy findings: pale and/or enlarged lungs in a few animals
[3]; 2 mg/kg i.v.
  additional recovery as metabolite 3-cyanobenzenesulfonate: 4.7%
  recovery associated to 3-sulfobenzoate: 0.6%
  mean total recovery of the unchanged counter-ion: about 72%
[3]; 10 mg/kg p.o.
  3-sulfobenzoate in urine: not detected
  additional recovery as metabolite 3-cyanobenzenesulfonate: 14.5%
  recovery associated to 3-sulfobenzoate: 1.7%
  mean total recovery of the unchanged counter-ion: about 61%
[4]
  HPLC purity after storage: > 99.7%
  degradation: no degradation had been observed
[5]; VMR mouse model, overall conclusion
  antinociceptive effects on colorectal distension induced pain: significant antinociceptive effects
[5]; after 2 and 4 hours
  VMR response to colorectal distension compared to the control group: overall reduction of the VMR response
[5]; at 6 hours, not statistically different from control
  VMR response to colorectal distension compared to the control group: trend toward efficacy
[6]
  tolerability: well-tolerated
[6]; 24 hr or Day 7
  macroscopic finding at gross necropsy: no significant macroscopic finding
[6]; 7 days
  clinical signs: no clinical signs were noted
  mortality: no mortality
[6]; Days 1, 2, 3 and 7
  body weights: remained stable
